Assays:
Type in all cases: functional, cell-based
HepG2 = assay: Antiproliferative activity against human HepG2 cells after 48 hrs by MTT assay; conditions: HepG2, 48 h
MCF7 = assay: Antiproliferative activity against human MCF7 cells after 48 hrs by MTT assay; conditions: MCF7, 48 h
BGC-823 = assay: Antiproliferative activity against human BGC823 cells after 48 hrs by MTT assay; conditions: BGC-823, 48 h
DU-145 = assay: Antiproliferative activity against human DU145 cells after 48 hrs by MTT assay; conditions: DU-145, 48 h
PC-3 = assay: Antiproliferative activity against human PC3 cells after 48 hrs by MTT assay; conditions: PC-3, 48 h

Row | Compound | IC50 (HepG2) [µM] | IC50 (MCF7) [µM] | IC50 (BGC-823) [µM] | IC50 (DU-145) [µM] | IC50 (PC-3) [µM]
1 | COC(C)(C)CCC[C@@](C)(O)[C@H]1CC[C@]2(C)[C@@H]1[C@H](O)C[C@@H]1[C@@]3(C)CC[C@H](O)C(C)(C)[C@@H]3CC[C@]12C | 35.9 | 31.3 | 36 | 40.7 | 39.5
2 | COC(C)(C)CCC[C@@](C)(O)[C@H]1CC[C@]2(C)[C@@H]1[C@H](O)C[C@@H]1[C@@]3(C)CC[C@H](OC(=O)c4ccccc4C)C(C)(C)[C@@H]3CC[C@]12C | > 50 | 37.6 | > 50 | 44.3 | > 50
3 | COC(C)(C)CCC[C@@](C)(O)[C@H]1CC[C@]2(C)[C@@H]1[C@H](OC(=O)c1cc([N+](=O)[O-])cc([N+](=O)[O-])c1)C[C@@H]1[C@@]3(C)CC[C@H](O)C(C)(C)[C@@H]3CC[C@]12C | > 50 | > 50 | > 50 | > 50 | > 50
4 | COC(C)(C)CCC[C@@](C)(O)[C@H]1CC[C@]2(C)[C@@H]1[C@H](OC(=O)c1cc(C)cc(C)c1)C[C@@H]1[C@@]3(C)CC[C@H](OC(=O)c4cc(C)cc(C)c4)C(C)(C)[C@@H]3CC[C@]12C | > 50 | > 50 | > 50 | > 50 | > 50
5 | COC(C)(C)CCC[C@@](C)(O)[C@H]1CC[C@]2(C)[C@@H]1[C@H](O)C[C@@H]1[C@@]3(C)CC[C@H](OC(=O)/C=C/c4ccc(Cl)cc4)C(C)(C)[C@@H]3CC[C@]12C | 26.7 | 20.8 | 25.8 | 33.1 | 23.5
6 | COC(C)(C)CCC[C@@](C)(O)[C@H]1CC[C@]2(C)[C@@H]1[C@H](O)C[C@@H]1[C@@]3(C)CC[C@H](OC(=O)c4ccc(Cl)cc4)C(C)(C)[C@@H]3CC[C@]12C | 25.7 | 19 | 26.4 | 20.5 | 28.3
7 | COC(C)(C)CCC[C@@](C)(O)[C@H]1CC[C@]2(C)[C@@H]1[C@H](O)C[C@@H]1[C@@]3(C)CC[C@H](OC(=O)c4ccc(F)cc4)C(C)(C)[C@@H]3CC[C@]12C | 8.5 | 9.4 | 12.7 | 13.8 | 15
8 | COC(C)(C)CCC[C@@](C)(O)[C@H]1CC[C@]2(C)[C@@H]1[C@H](O)C[C@@H]1[C@@]3(C)CC[C@H](OC(=O)c4ccccc4)C(C)(C)[C@@H]3CC[C@]12C | 17.8 | 18.9 | 35.1 | 23.5 | 30.4
9 | COC(C)(C)CCC[C@@](C)(O)[C@H]1CC[C@]2(C)[C@@H]1[C@H](OC(=O)c1ccc([N+](=O)[O-])cc1)C[C@@H]1[C@@]3(C)CC[C@H](O)C(C)(C)[C@@H]3CC[C@]12C | > 50 | > 50 | > 50 | > 50 | > 50
10 | COC(C)(C)CCC[C@@](C)(O)[C@H]1CC[C@]2(C)[C@@H]1[C@H](O)C[C@@H]1[C@@]3(C)CC[C@H](OC(=O)/C=C/c4ccc(F)cc4)C(C)(C)[C@@H]3CC[C@]12C | 26.9 | 23.7 | 18 | 20.6 | 17.6
11 | COC(C)(C)CCC[C@@](C)(O)[C@H]1CC[C@]2(C)[C@@H]1[C@H](OC(=O)/C=C/c1ccc(F)cc1)C[C@@H]1[C@@]3(C)CC[C@H](O)C(C)(C)[C@@H]3CC[C@]12C | > 50 | > 50 | > 50 | > 50 | > 50
12 | COC(C)(C)CCC[C@@](C)(O)[C@H]1CC[C@]2(C)[C@@H]1[C@H](OC(=O)c1ccc(Br)cc1)C[C@@H]1[C@@]3(C)CC[C@H](O)C(C)(C)[C@@H]3CC[C@]12C | > 50 | > 50 | > 50 | > 50 | > 50
13 | COC(C)(C)CCC[C@@](C)(O)[C@H]1CC[C@]2(C)[C@@H]1[C@H](OC(=O)c1cc([N+](=O)[O-])cc([N+](=O)[O-])c1)C[C@@H]1[C@@]3(C)CC[C@H](OC(=O)c4cc([N+](=O)[O-])cc([N+](=O)[O-])c4)C(C)(C)[C@@H]3CC[C@]12C | > 50 | 38.2 | > 50 | 44.6 | > 50
14 | COC(C)(C)CCC[C@@](C)(O)[C@H]1CC[C@]2(C)[C@@H]1[C@H](OC(=O)c1ccccc1I)C[C@@H]1[C@@]3(C)CC[C@H](OC(=O)c4ccccc4I)C(C)(C)[C@@H]3CC[C@]12C | > 50 | > 50 | > 50 | > 50 | > 50
15 | COC(C)(C)CCC[C@@](C)(O)[C@H]1CC[C@]2(C)[C@@H]1[C@H](O)C[C@@H]1[C@@]3(C)CC[C@H](OC(=O)c4ccc(Br)cc4)C(C)(C)[C@@H]3CC[C@]12C | 25.7 | 17.6 | 26.2 | 23.1 | 35.7
16 | COC(C)(C)CCC[C@@](C)(O)[C@H]1CC[C@]2(C)[C@@H]1[C@H](OC(=O)c1ccc(I)cc1)C[C@@H]1[C@@]3(C)CC[C@H](OC(=O)c4ccc(I)cc4)C(C)(C)[C@@H]3CC[C@]12C | > 50 | > 50 | > 50 | > 50 | > 50
17 | COC(C)(C)CCC[C@@](C)(O)[C@H]1CC[C@]2(C)[C@@H]1[C@H](OC(=O)c1ccc(Br)cc1)C[C@@H]1[C@@]3(C)CC[C@H](OC(=O)c4ccc(Br)cc4)C(C)(C)[C@@H]3CC[C@]12C | > 50 | > 50 | > 50 | > 50 | > 50
18 | COC(C)(C)CCC[C@@](C)(O)[C@H]1CC[C@]2(C)[C@@H]1[C@H](OC(=O)c1ccccc1C)C[C@@H]1[C@@]3(C)CC[C@H](O)C(C)(C)[C@@H]3CC[C@]12C | > 50 | > 50 | > 50 | > 50 | > 50
19 | COC(C)(C)CCC[C@@](C)(O)[C@H]1CC[C@]2(C)[C@@H]1[C@H](OC(=O)c1cc(I)ccc1Cl)C[C@@H]1[C@@]3(C)CC[C@H](OC(=O)c4cc(I)ccc4Cl)C(C)(C)[C@@H]3CC[C@]12C | > 50 | > 50 | > 50 | > 50 | > 50
20 | COC(C)(C)CCC[C@@](C)(O)[C@H]1CC[C@]2(C)[C@@H]1[C@H](O)C[C@@H]1[C@@]3(C)CC[C@H](OC(=O)c4cc(Br)cc(Br)c4)C(C)(C)[C@@H]3CC[C@]12C | 43.6 | 41.7 | 36.1 | 22.6 | 38.4
21 | COC(C)(C)CCC[C@@](C)(O)[C@H]1CC[C@]2(C)[C@@H]1[C@H](OC(=O)/C=C/c1ccc(Cl)cc1)C[C@@H]1[C@@]3(C)CC[C@H](OC(=O)/C=C/c4ccc(Cl)cc4)C(C)(C)[C@@H]3CC[C@]12C | > 50 | > 50 | > 50 | > 50 | > 50
22 | COC(C)(C)CCC[C@@](C)(O)[C@H]1CC[C@]2(C)[C@@H]1[C@H](O)C[C@@H]1[C@@]3(C)CC[C@H](OC(=O)c4ccccc4[N+](=O)[O-])C(C)(C)[C@@H]3CC[C@]12C | 12 | 8.6 | 7.9 | 11.5 | 14.8
23 | COC(C)(C)CCC[C@@](C)(O)[C@H]1CC[C@]2(C)[C@@H]1[C@H](OC(=O)c1ccc(F)cc1F)C[C@@H]1[C@@]3(C)CC[C@H](OC(=O)c4ccc(F)cc4F)C(C)(C)[C@@H]3CC[C@]12C | > 50 | > 50 | 37.7 | > 50 | 43.2
24 | COC(C)(C)CCC[C@@](C)(O)[C@H]1CC[C@]2(C)[C@@H]1[C@H](O)C[C@@H]1[C@@]3(C)CC[C@H](OC(=O)c4ccccc4I)C(C)(C)[C@@H]3CC[C@]12C | 39.2 | 33.4 | 28.7 | 28.1 | 46.5
25 | COC(C)(C)CCC[C@@](C)(O)[C@H]1CC[C@]2(C)[C@@H]1[C@H](O)C[C@@H]1[C@@]3(C)CC[C@H](OC(=O)c4cc(C)cc(C)c4)C(C)(C)[C@@H]3CC[C@]12C | > 50 | 48.2 | > 50 | > 50 | > 50
26 | COC(C)(C)CCC[C@@](C)(O)[C@H]1CC[C@]2(C)[C@@H]1[C@H](O)C[C@@H]1[C@@]3(C)CC[C@H](OC(=O)c4cccc(C)c4)C(C)(C)[C@@H]3CC[C@]12C | 38.4 | > 50 | > 50 | 46.2 | > 50
27 | COC(C)(C)CCC[C@@](C)(O)[C@H]1CC[C@]2(C)[C@@H]1[C@H](O)C[C@@H]1[C@@]3(C)CC[C@H](OC(=O)c4cc([N+](=O)[O-])cc([N+](=O)[O-])c4)C(C)(C)[C@@H]3CC[C@]12C | 14.5 | 11.7 | 9.5 | 13.4 | 7.5
28 | COC(C)(C)CCC[C@@](C)(O)[C@H]1CC[C@]2(C)[C@@H]1[C@H](OC(=O)c1cc(F)ccc1Br)C[C@@H]1[C@@]3(C)CC[C@H](OC(=O)c4cc(F)ccc4Br)C(C)(C)[C@@H]3CC[C@]12C | > 50 | > 50 | > 50 | > 50 | > 50
29 | O=c1[nH]cc(F)c(=O)[nH]1 [FLUOROURACIL] |  | 22.6 | 24.8 | 25.3 | 23.1

— ChEMBL document CHEMBL4371049, “Semi-synthesis and anti-tumor activity of novel 25-OCH3-PPD derivatives incorporating aromatic moiety” (Bioorg Med Chem Lett, 2019)
